From US6821980B1, “Substituted 5-benzyl-2,4-diaminopyrimidines” (Basilea Pharmaceutica AG, priority 1999, dated 2004) come the findings set out here.

The test system of assay [1] is Staphylococcus aureus 101. As to the kind of experiment: MIC against Staphylococcus aureus 101. The class given is cell-based. The conditions noted are these: Table 2, Staphylococcus aureus 101, MRSA- and trimethoprim-resistant, clinical isolate; for MIC: read-out: MIC Sa101.
In assay [2] the test system is Streptococcus pneumoniae 1/1. As to the kind of experiment: MIC against Streptococcus pneumoniae 1/1. The format is cell-based. To be noted: Table 2, Streptococcus pneumoniae 1/1, trimethoprim- and penicillin-resistant, serotype 6, clinical isolate; for MIC: read-out: MIC Sp1/1.
Assay [3] concerns the target purified DHFR of strain 157/4696 of Staphylococcus aureus (Staphylococcus aureus, UniProt P13955). As to the kind of experiment: biochemical.
The target of assay [4] is T1, purified DHFR of strain Sp1/1 of Streptococcus pneumoniae (Streptococcus pneumoniae serotype 4, UniProt Q54801).
T1 sequence (Q54801 1-168 I100L): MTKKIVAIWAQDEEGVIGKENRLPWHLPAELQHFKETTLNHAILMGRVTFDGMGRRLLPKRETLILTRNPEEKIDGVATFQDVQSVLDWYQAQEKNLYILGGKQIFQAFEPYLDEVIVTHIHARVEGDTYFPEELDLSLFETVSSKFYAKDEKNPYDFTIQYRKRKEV
The class given is biochemical. To be noted: Table 2; IC50 against purified DHFR of strain Sp1/1.

In brackets after ≈: the same amount, converted by molar mass. Like-named read-outs stand apart in the source and are kept apart here.

Chain of purified DHFR of strain 157/4696 of Staphylococcus aureus (P13955 whole entry): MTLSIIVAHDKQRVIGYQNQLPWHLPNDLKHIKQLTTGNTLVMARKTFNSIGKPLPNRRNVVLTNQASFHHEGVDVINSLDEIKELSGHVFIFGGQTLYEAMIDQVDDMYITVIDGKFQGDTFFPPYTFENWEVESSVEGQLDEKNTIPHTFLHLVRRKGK

Consider `CCOc1cc(Cc2cnc(N)nc2N)cc(OS(=O)(=O)C2CCOCC2)c1-c1ccc(N)c(C)c1` [Example 41-a, Tetrahydropyran-4-sulphonic acid 4′-amino-4-(2,4-diamino-pyrimidin-5-ylmethyl)-6-ethoxy-3′-methyl-biphenyl-2-yl ester], for which the MIC is 2 µg/mL (≈ 3.89 µM) in assay [1] and 0.5 µg/mL (≈ 0.973 µM) in assay [2]. Moreover, the IC50 in assay [3] was 55 nM; in assay [4] it was 0.3 nM.

On to `CCOc1cc(Cc2cnc(N)nc2N)cc(OS(=O)(=O)C2CCOCC2)c1-c1ccc(N)c(F)c1` [Example 41-b, Tetrahydronyran-4-sulphonic acid 4′-amino-4-(2,4-diamino-pyrimidin-5-ylmethyl)-6-ethoxy-3′-fluoro-biphenyl-2-yl ester], for which the MIC was 4 µg/mL (≈ 7.73 µM) in assay [1] and 0.5 µg/mL (≈ 0.966 µM) in assay [2]. Moreover, the IC50 was found to be 250 nM in assay [3] and 6.2 nM in assay [4].

Turning to `CCOc1cc(Cc2cnc(N)nc2N)cc(OS(=O)(=O)C2CCOCC2)c1-c1cccc(N)c1` [Example 41-c, Tetrahydropyran-4-sulphonic acid 3′-amino-4-(2,4-diamino-pyrimidin-5-ylmethyl)-6-ethoxy-biphenyl-2-yl ester], the results for the MIC in assay [1] and in assay [2] were 4 µg/mL (≈ 8.01 µM) and 0.5 µg/mL (≈ 1 µM), respectively. Further, the IC50 worked out at 43 nM in assay [3] and 4.2 nM in assay [4].

`CCOc1cc(Cc2cnc(N)nc2N)cc(OS(=O)(=O)CC2CCCO2)c1-c1cccc(N)c1` (stereo not drawn) [Example 42-a, Tetrahydrofuran-2-yl-methanesulphonic acid 3′-amino-4-(2,4-diamino-pyrimidin-5-ylmethyl)-6-ethoxy-biphenyl-2-yl ester]: the results for the MIC in assay [1] and in assay [2] were 8 µg/mL (≈ 16 µM) and 2 µg/mL (≈ 4 µM), respectively. Besides, the IC50 stood at 250 nM in assay [3] and 5.7 nM in assay [4].

As for `CCOc1cc(Cc2cnc(N)nc2N)cc(OS(=O)(=O)CC2CCCO2)c1-c1ccc(N)c(F)c1` (stereo not drawn) [Example 42-b, Tetrahydrofuran-2-yl-methanesulphonic acid 4′-amino-4-(2,4-diamino-primidin-5-ylmethyl)-6-ethoxy-3′-fluoro-biphenAl-2-yl ester], the MIC in assay [1] was 8 µg/mL (≈ 15.5 µM); in assay [2], 2 µg/mL (≈ 3.86 µM). Besides, the IC50 in assay [3] is 510 nM; in assay [4], 7.6 nM.

In the case of `CCOc1cc(Cc2cnc(N)nc2N)cc(OS(=O)(=O)CC2CCCO2)c1-c1ccc(N)c(C)c1` (stereo not drawn) [Example 42-c, Tetrahydrofuran-2-yl-methanesulphonic acid 4′-amino-4-(2,4-diamino-pyrimidin-5-ylmethyl)-6-ethoxy-3′-methyl-biphenyl-2-yl ester], the MIC in assay [1] amounted to 8 µg/mL (≈ 15.6 µM); in assay [2], 1 µg/mL (≈ 1.95 µM). In addition, the IC50 in assay [3] came to 300 nM; in assay [4], 6.3 nM.

For the compound `CCOc1cc(Cc2cnc(N)nc2N)cc(OS(=O)(=O)N(C)C)c1-c1ccc(SC)cc1` [Example 43-a, Dimethylsulphamic acid 4-(2,4-diamino-pyrimidin-5-ylmethyl)-6-ethoxy-4′-methylsulphanyl-biphenyl-2-yl ester], the MIC in assay [1] amounted to 2 µg/mL (≈ 4.08 µM); in assay [2], 4 µg/mL (≈ 8.17 µM). Moreover, the IC50 in assay [3] was determined as 320 nM; in assay [4] it was 6.7 nM.

For `CCOc1cc(Cc2cnc(N)nc2N)cc(OS(=O)(=O)N(C)C)c1-c1ccccc1` [Example 43-b, Dimethylsulphamic acid 4-(2,4-diamino-pyrimidin-5-ylmethyl)-6-ethoxy-biphenyl-2-yl ester], the MIC in assay [1] and in assay [2] was 1 µg/mL (≈ 2.25 µM) throughout. Also, the IC50 came to 260 nM in assay [3] and 9.8 nM in assay [4].

On to `CCOc1cc(Cc2cnc(N)nc2N)cc(OS(=O)(=O)N(C)C)c1-c1ccc(N)c(C#N)c1` [Example 43-c, Dimethylsulphamic acid 4′-amino-3′-cyano-4-(2,4-diamino-gvrimidin-5-ylmethyl)-6-ethoxy-biphenyl-2-yl ester], for which the MIC in assay [1] and in assay [2] was 2 µg/mL (≈ 4.14 µM) throughout. For the same compound, the IC50 in assay [3] stood at 160 nM; in assay [4], 24 nM.

With `CCOc1cc(Cc2cnc(N)nc2N)cc(OS(=O)(=O)N(C)C)c1-c1ccc2[nH]ccc2c1` [Example 43-d, Dimethylsulphamic acid 5-(2,4-diamino-pyrimidin-5-ylmethyl)-3-ethoxy-2-(1H-indol-5-yl)-phenyl ester], the MIC in assay [1] and in assay [2] was 1 µg/mL (≈ 2.07 µM) each time. The figures for the IC50 in assay [3] and in assay [4] were 180 nM and 42 nM, respectively.

Regarding `CCOc1cc(Cc2cnc(N)nc2N)cc(OCC)c1-c1cccc(NS(C)(=O)=O)c1` [Example 44-, N-[4′-(2,4-Diamino-pyrimidin-5-ylmethyl)-2′,6′-diethoxy-biphenyl-3-yl]-methanesulphonamide], the results for the MIC in assay [1] and in assay [2] were 8 µg/mL (≈ 17.5 µM) and 2 µg/mL (≈ 4.37 µM), respectively. Moreover, the IC50 was determined as 680 nM in assay [3] and 18 nM in assay [4].

Regarding `CCOc1cc(Cc2cnc(N)nc2N)cc(OCC)c1-c1ccc(OS(C)(=O)=O)cc1` [Example 45-, Methanesulphonic acid 4′-(2,4-diamino-pyrimidin-5-ylmethyl)-2′,6′-diethoxy-biphenyl-4-yl ester], the MIC amounted to 8 µg/mL (≈ 17.4 µM) in assay [1] and 4 µg/mL (≈ 8.72 µM) in assay [2]. The figures for the IC50 in assay [3] and in assay [4] were 2400 nM and 130 nM, respectively.

For the compound `CCOc1cc(Cc2cnc(N)nc2N)cc(OCC)c1-c1ccc(OCC(N)=O)cc1` [Example 46-, 2-[4′-(2,4-Diamino-pylimidin-5-ylmethyl)-2′,6′-diethoxy-biphenyl-4-yloxy]-acetamide], the MIC in assay [1] turned out to be 8 µg/mL (≈ 18.3 µM); in assay [2], 2 µg/mL (≈ 4.57 µM). For the same compound, the IC50 amounted to 750 nM in assay [3] and 55 nM in assay [4].

Take `CCOc1cc(Cc2cnc(N)nc2N)cc(OCC2(CCC#N)CC2)c1-c1ccc(O)cc1` [Example 47-, 3-{1-[4-(2,4-Diamino-pyrimidin-5-yjmethyl)-6-ethoxy-4′-hydroxy-biphenyl-2-loxymethyl]-cycloprropyl}-propionitrile]: the “MIC Sa101” value in assay [1] came to 8 µg/mL (≈ 17.4 µM). Moreover, in assay [2], the “MIC Sp1/1” value worked out at 2 µg/mL (≈ 4.35 µM). Also, the IC50 in assay [3] (Table 2, IC50 against purified DHFR of strain 157/4696 (highly trimethoprim-resistant; clinical isolate), read-out: DHFR Sa1) worked out at 1200 nM; in assay [4], 10 nM.

As to `CCOc1cc(Cc2cnc(N)nc2N)cc(OCC(C)(C)CCC#N)c1-c1ccc(O)cc1` [Example 48-, 5-[4-(2,4-Diamino-pyrimidin-5-ylmethyl) 6-ethoy-4′-hydro-biPhenyl-2-xyloxy]-4,4-dimethyl-pentanenitrile], the results for the MIC in assay [1] and in assay [2] were 4 µg/mL (≈ 8.67 µM) and 2 µg/mL (≈ 4.33 µM), respectively. Further, the IC50 in assay [3] worked out at 750 nM; in assay [4], 30 nM.

For the compound `CCOc1cc(Cc2cnc(N)nc2N)cc(OCC)c1-c1ccc2c(c1)CCCN2` [Example 49-, 5-[3,5-Diethoxy-4-(1,2,3,4-tetrahydro-quinolin-6-yl)-benzyl]-pyrimidine-2,4-diamine], the MIC in assay [1] came to 4 µg/mL (≈ 9.53 µM); in assay [2] it was 8 µg/mL (≈ 19.1 µM). For the same compound, the IC50 in assay [3] stood at 820 nM; in assay [4] it was 46 nM.

Turning to `CCOc1cc(Cc2cnc(N)nc2N)cc(OCC)c1-c1cccc(OCCOC)c1` [Example 50-, 5-[2,6-Diethoxy-3′-(2-methoxy-ethoxy)-biphenyl-4-ylmethyl]-pyrimidine-2,4-diamine], the results for the MIC in assay [1] and in assay [2] were 8 µg/mL (≈ 18.2 µM) and 4 µg/mL (≈ 9.12 µM), respectively. Further, the IC50 is 10000 nM in assay [3] and 32 nM in assay [4].

With `CCCOc1cc(Cc2cnc(N)nc2N)cc(OCCC)c1-c1cccc(N)c1` [Example 51-, 5-(3′-Amino-2,6-di-n-propoxy-biphenyl-4-ylmethyl)-pyrimidine-2,4-diamine], the MIC amounted to 8 µg/mL (≈ 19.6 µM) in assay [1] and 2 µg/mL (≈ 4.91 µM) in assay [2]. The IC50 in assay [3] stood at 8500 nM; in assay [4] it was 43 nM.
